Entries after “also recorded” stand apart in the source; their conditions may differ.
Legend:
[1] = solubility and stability in alkaline medium (physicochemical properties); conditions: for stability in basic substances / alkaline water: basic substances such as pyridine, monoethanolamine, and alkaline water; for Solubility: Also soluble in basic substances: soluble but readily decomposed; for Solubility: Insoluble in: solvents listed as Insoluble; for Solubility: Soluble in: solvents listed as Soluble
rabbit aorta = test: inhibition of contraction using extirpated blood vessel preparations (vasodilative activity); conditions: contraction by 20 mM KCl, added 30 minutes before; for inhibition at 10 µg/mL: final concentration 10.0 μg/ml
Procedure: The vosodilative activity of KS-504a, KS-504b and KS-504d is explained below, referring to Experimental Example 1 on inhibition of contraction using extirpated blood vessel preparations.
White bastard rabbits (male, 2-3 kg) were incised along the abdominal median line. The aorta was cut out with a length of about 2-2.5 cm from the venter, and spiral strips with a width of 3-4 mm were prepared therefrom. The strips were ligated with silk yarn at both ends, and the lower end was connected to a stationary rod, whereas the upper end was connected to a tension transducer (TB-612T, a product of Nippon Koden Co., Ltd.). The strips were suspended under an initial tension of 1.5 g. The strips were soaked in a Krebs-Henseleit solution at 32° C. whose composition in g/l was NaCl: 6.92, KCl: 0.35, MgSO4.7H2 O: 0.29, CaCl2.2H2 O: 0.37, KH2 PO4 : 0.16, NaHCO3 :2.1 and glucose: 1.0 in a Magnus tube, and a gas (95% O2 and 5% CO2) was introduced therein. After being stabilized for 1 to 2 hours, the preparations were used for the experiment. Potassium chloride was added to the Magnus tube to a final concentration of 20 mM. The resulting contraction reaction was recorded on a polygraph (AM-6000, a product of Nippon Koden Co., Ltd.) in equal scales through the tension transducer. KS-504a, KS-504b and KS-504d were each dissolved in dimethyl sulfoxide to a concentration of mg/ml, and the solutions were properly diluted with a Krebs-Henseleit solution and added to the Magnus tube 30 minutes before the application of the contracting
*The rate of inhibition of contraction was calculated according to the
Rate of inhibition of contraction (%)

[2] = minimal lethal dose in mice; assay type: in vivo; conditions: p.o.
[3] = tested on: rat peritoneal exudate cells; test: inhibition of histamine secretion from rat peritoneal exudate cells; assay type: cell-based; conditions: 10 min, phosphatidyl-L-serine and concanavalin A, 37° C, read-out: Rate of suppression of histamine secretion
Procedure: Influence on histamine secretion from rat peritoneal exudate cells
Rats with body weights of 150-180 g were killed under dry ether anesthesia by exsanguination, and mast cell medium prepared according to the method of Sullivan, et al. J. Immunol. 114, 1473 (1975)](hereinafter abbreviated as MCM, composition: 150mM NaCl, 3.7 mM KCl, 3 mM Na2 HPO4, 3.5 mM KH2 PO4, 1 mM CaCl2, 5.6 mM glucose, 0.1% bovine serum albumin, 10 U/ml heparin) was injected intraperitoneally into the animals at 6 ml/animal. The abdominal parts were massaged for two minutes, and then cut open to sample exuded solution in the abdominal cavities. The exuded solution collected from 6 rats was centrifuged a 100×g for 5 minutes at 4° C, and the precipitate was mixed with an appropriate amount of water-cooled MCM, and washed three times to prepare a cell suspension (peritoneal exudate cells, hereinafter abbreviated as PEC) containing mast cells at a final concentration of about 3×10^4 cells/ml. Identification of mast cells was carried out by staining intracellular granules with 0.05% Toluidine Blue. Then, 1 ml of the thus obtained PEC was preincubated at 37° C for 10 minutes, and then admixed with 0.1 ml of test solutions at various concentrations and incubated for 10 minutes. The incubated mixtures were further admixed with 0.1 ml each of 100 μg/ml phosphatidyl-L-serine and 1000 μg/ml concanavalin A, followed by incubation for 15 minutes. The reaction was discontinued by addition of 3 ml of ice-cooled physiological saline solution, and the mixture was centrifuged at 1100×g for 10 minutes at 4° C. to obtain a supernatant and a residue. Histamine contents of the supernatant and the residue were measured by fluorometry according to the method of Komatsu [Allergy 27, 67 (1978)].
The histamine secretion rate was defined by a percentage of histamine content in the supernatant to total histamine content in the cells. The rate of suppression of histamine secretion by the test solution was calculated according to the following equation.
Rate of suppression of secretion (%) [formula]

[4] = Oryctolagus cuniculus, read-out: Rate of inhibition of contraction

OC1C(Cl)(Cl)C(=C(Cl)Cl)C2(OC2Cl)C1(Cl)Cl (stereo not drawn) [KS-504b]
stability in basic substances / alkaline water [1]: readily decomposed | Solubility: Also soluble in basic substances [1]: pyridine, monoethanolamine, etc. and alkaline | Solubility: Insoluble in [1]: water, acidic water | Solubility: Soluble in [1]: methanol, chloroform, acetone, ethyl; also recorded: acetate, acetonotrile; also recorded: dimethylsulfoxide | inhibition at 10 µg/mL (rabbit aorta; [4]): 100% | Rate of inhibition of contraction (rabbit aorta; final concentration 1.0 μg/ml): 76% | Rate of inhibition of contraction (rabbit aorta; final concentration 3.0 μg/ml): 80%

OC1C(Cl)(Cl)C(=C(Cl)Cl)C2(OC2Cl)C1(Cl)Cl (stereo not drawn) [KS-504a]
stability in basic substances / alkaline water [1]: readily decomposed | Solubility: Also soluble in basic substances [1]: pyridine, monoethanolamine, etc. and alkaline | Solubility: Insoluble in [1]: water, acidic water | Solubility: Soluble in [1]: methanol, n-butanol, chloroform; also recorded: acetone, ethyl acetate; also recorded: dimethylformamide, dimethylsulfoxide; also recorded: benzene, acetic acid, hexane | minimal lethal dose [2]: 300 mg/kg | inhibition at 0.1 µg/mL (rabbit aorta; Oryctolagus cuniculus, final concentration 0.1 μg/ml, read-out: Rate of inhibition of contraction): 37% | inhibition at 1 µg/mL (rabbit aorta; Oryctolagus cuniculus, final concentration 1.0 μg/ml, read-out: Rate of inhibition of contraction): 59% | inhibition at 3 µg/mL (rabbit aorta; Oryctolagus cuniculus, final concentration 3.0 μg/ml, read-out: Rate of inhibition of contraction): 82%

OC1C(Cl)(Cl)C(=C(Cl)Cl)C(O)(C(Cl)Cl)C1(Cl)Cl (stereo not drawn) [KS-504d]
stability in basic substances / alkaline water [1]: readily decomposed | Solubility: Also soluble in basic substances [1]: pyridine, monoethanolamine, etc. and alkaline | Solubility: Soluble in [1]: acetone, ethyl acetate, acetonitrile; also recorded: benzene, methanol, chloroform; also recorded: hexane, water, acidic water | inhibition at 10 µg/mL (rabbit aorta; [4]): 6.9% | inhibition at 30 µg/mL (rabbit aorta; Oryctolagus cuniculus, final concentration 30.0 μg/ml, read-out: Rate of inhibition of contraction): 91%

O=CC1=C(C(Cl)(Cl)Cl)C(Cl)(Cl)C(O)C1(Cl)Cl (stereo not drawn) [KS-504e]
stability in basic substances / alkaline water [1]: readily decomposed | Solubility: Also soluble in basic substances [1]: pyridine, monoethanolamine, etc. and alkaline | Solubility: Insoluble in [1]: water, acidic water | Solubility: Soluble in [1]: methanol, chloroform, acetone, ethyl; also recorded: acetate, acetonitrile; also recorded: dimethylsulfoxide | inhibition at 0.03 µg/mL ([3]; test solution 0.03 μg/ml): 15% | inhibition at 0.1 µg/mL ([3]; test solution 0.1 μg/ml): 62% | inhibition at 0.3 µg/mL ([3]; test solution 0.3 μg/ml): 100%
